From patent publication US20090285773A1, “Hepatitis C Virus Inhibitors” (Bristol-Myers Squibb Company, priority 2008, published 2009)

Biological target: T1, HCV NS3/4A protease complex, J4L6S strain (1b genotype) (Hepatitis C virus genotype 1b, UniProt O92972, C1454S/C1711G)
T1 construct: DNA encoding the recombinant HCV NS3/4A protease complex (amino acids 1027 to 1711) for these strains; His tag (inferred from pET21b vector and Ni-NTA purification); made in house; host or cells: Escherichia coli BL21 (DE3)
T1 sequence (O92972 1027-1711 C1454S/C1711G, one chain of several): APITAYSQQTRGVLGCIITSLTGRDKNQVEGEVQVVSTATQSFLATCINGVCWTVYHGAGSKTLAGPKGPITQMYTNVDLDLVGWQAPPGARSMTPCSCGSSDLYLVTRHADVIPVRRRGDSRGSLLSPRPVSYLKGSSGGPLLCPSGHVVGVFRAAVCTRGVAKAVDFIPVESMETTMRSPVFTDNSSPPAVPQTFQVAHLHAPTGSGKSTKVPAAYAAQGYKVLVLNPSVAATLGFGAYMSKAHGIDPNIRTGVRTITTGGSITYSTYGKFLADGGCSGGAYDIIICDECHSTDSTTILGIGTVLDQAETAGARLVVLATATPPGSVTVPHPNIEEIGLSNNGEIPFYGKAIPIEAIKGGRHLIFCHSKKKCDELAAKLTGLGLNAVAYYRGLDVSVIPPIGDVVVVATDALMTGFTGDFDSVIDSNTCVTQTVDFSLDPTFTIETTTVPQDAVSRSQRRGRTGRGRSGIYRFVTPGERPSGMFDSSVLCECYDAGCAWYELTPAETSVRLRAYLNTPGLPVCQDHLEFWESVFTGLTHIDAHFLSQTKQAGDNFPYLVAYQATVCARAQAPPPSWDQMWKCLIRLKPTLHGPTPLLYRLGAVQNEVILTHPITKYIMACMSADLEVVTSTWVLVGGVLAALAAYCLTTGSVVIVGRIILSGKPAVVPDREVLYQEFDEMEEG
Assay: FRET peptide assay, HCV NS3/4A protease complex, J4L6S strain
Assay type: biochemical
Excerpt: HCV NS3 protease complexes, derived from the BMS strain, H77 strain or J4L6S strain, were generated, as described below. These purified recombinant proteins were generated for use in a homogeneous assay (see below) to provide an indication of how effective compounds of the present disclosure would be in inhibiting HCV NS3 proteolytic activity.
Serum from an HCV-infected patient was obtained from Dr. T. Wright, San Francisco Hospital. An engineered full-length cDNA (compliment deoxyribonucleic acid) template of the HCV genome (BMS strain) was constructed from DNA fragments obtained by reverse transcription-PCR (RT-PCR) of serum RNA (ribonucleic acid) and using primers selected on the basis of homology between other genotype 1a strains. From the determination of the entire genome sequence, a genotype 1a was assigned to the HCV isolate according to the classification of Simmonds et al. (See P Simmonds, K A Rose, S Graham, S W Chan, F McOmish, B C Dow, E A Follett, P L Yap and H Marsden, J. Clin. Microbiol., 31(6), 1493-1503 (1993)). […]

`COc1ccc2c(O[C@@H]3C[C@H]4C(=O)N[C@]5(C(=O)NS(=O)(=O)C6CC6)C[C@H]5/C=C\CCCCC[C@H](Nc5ccc(OC)nc5)C(=O)N4C3)nccc2c1` (single isomer, unassigned) [Compound 1] showed an IC50 of 1.2 nM.
